{
  "source": "patent US20250135049A1",
  "about": "“Methods for Biological Material Labeling and Medical Imaging” (Mayo Foundation for Medical Education and Research, priority 2021, published 2025)",
  "key": {"[1]": {"tested_on": "human decidual stromal cells (hDSCs), bone marrow-derived macrophages (rMac) and human peripheral blood mononuclear cells (hPBMCs)", "settings": "Ref. 72; cited from earlier work"}, "[2]": {"experiment": "PET imaging and ex vivo biodistribution studies", "format": "in vivo, athymic nude mice", "settings": "for SUV Average ± SD: day 7 post-injection, free [^89Zr]ZrCl4, tail vein, n = 3", "method": "8-10 weeks old Athymic nude mice (male and female, 1:1) were obtained from Charles Rivers Laboratories or Taconic Biosciences, Inc.\nAfter radiolabeling, the radiolabeled WBCs-0.1-0.6×10^6 (0.03-0.11 MBq); and SCs-0.1-1×10^6 (0.1-0.15 MBq) were injected in a group (n=3) of athymic nude mice, via tail vein injection. PET images were acquired at 4 hours, 2 days, 4 days and 7 days post-injection (p.i.) using microPET scanner. The free [^89Zr] ZrCl4 with radioactivity (0.15-0.19 MBq) was also injected intravenously via tail vein injection. The micro PET images were analyzed and scaled to SUV by image analysis software. The animals were euthanized at 7 days p.i., and organs/tissues were collected to measure standardized uptake value (SUV) in major organs. Animals were euthanized via cardiectomy under anesthesia using isoflurane as approved by the Institutional Animal Care and Use Committee (IACUC) of the Mayo Clinic Rochester MN, USA."}, "[3]": {"experiment": "Stability of HPLC-purified [^89Zr]Zr-DBN with and without ascorbic acid (HPLC)", "format": "physicochemical", "settings": "for stability of [^89Zr]Zr-DBN: stored at -20° C.", "method": "The purified and concentrated [^89Zr] Zr-DBN was stored at −20° C. and stability was tested at 0 hours, 24 hours, and 72 hours post HPLC purification and concentration in comparison with unpurified [^89Zr] Zr-DBN which was also stored at −20° C. To test the stability, the frozen [^89Zr] Zr-DBN was allowed to come to room temperature and reconstituted with ˜100 μL DMSO. The reconstituted [^89Zr] Zr-DBN (˜ 3.7 MBq) was diluted with ˜900 μL neutralized deionized water (pH 7.0) and pH was further adjusted to pH 7.0 using 1M Na2CO3. The stability of reconstituted and neutralized [^89Zr] Zr-DBN was tested using the same HPLC method that was used for [^89Zr] Zr-DBN purification.\nThe HPLC purified [^89Zr] Zr-DBN (˜7.2 mL) was divided into two equal parts of ˜3.6 mL each. In one-part, 25 μL of 200 mg/mL ascorbic acid (Sigma Aldrich, St. Louis, MO, USA) was added. Both ascorbic acid treated, and untreated fractions were concentrated at 0.42 torr and room temperature. […] Zr-DBN purification."}},
  "data": [
    {"compound": "[89Zr+4].[O-]c1cccc2cccnc12.[O-]c1cccc2cccnc12.[O-]c1cccc2cccnc12.[O-]c1cccc2cccnc12", "note": "[[^89Zr] Zr-oxine]", "values": [
      {"measurement": "apparent efflux of ^89Zr from the labeled cells", "setting": "[1]", "value": "29-38%"}
    ]},
    {"compound": "[Cl][89Zr]([Cl])([Cl])[Cl]", "note": "[[^89Zr]ZrCl4, [^89Zr] ZrCl4]", "values": [
      {"measurement": "SUV Average ± SD", "setting": "[2]; Bladder", "value": "0.32 ± 0.09"},
      {"measurement": "SUV Average ± SD", "setting": "[2]; Blood", "value": "0.12 ± 0.01"},
      {"measurement": "SUV Average ± SD", "setting": "[2]; Bone", "value": "9.89 ± 0.4"},
      {"measurement": "SUV Average ± SD", "setting": "[2]; Brain", "value": "0.02 ± 0.02"},
      {"measurement": "SUV Average ± SD", "setting": "[2]; Heart", "value": "0.26 ± 0.03"},
      {"measurement": "SUV Average ± SD", "setting": "[2]; Intestine", "value": "0.09 ± 0.01"},
      {"measurement": "SUV Average ± SD", "setting": "[2]; Kidney", "value": "0.49 ± 0.07"},
      {"measurement": "SUV Average ± SD", "setting": "[2]; Liver", "value": "0.61 ± 0.07"},
      {"measurement": "SUV Average ± SD", "setting": "[2]; Lung", "value": "0.36 ± 0.06"},
      {"measurement": "SUV Average ± SD", "setting": "[2]; Muscle", "value": "0.14 ± 0.05"},
      {"measurement": "SUV Average ± SD", "setting": "[2]; Pancreas", "value": "0.29 ± 0.02"},
      {"measurement": "SUV Average ± SD", "setting": "[2]; Skin", "value": "0.42 ± 0.14"},
      {"measurement": "SUV Average ± SD", "setting": "[2]; Spleen", "value": "0.39 ± 0.09"},
      {"measurement": "SUV Average ± SD", "setting": "[2]; Urine", "value": "0.08 ± 0.03"},
      {"measurement": "distribution of radioactivity on micro PET imaging", "setting": "[2]; intravenous injection, 4 hours, 2 days, 4 days, 7 days", "value": "high accumulation of free ^89Zr in the bones"}
    ]},
    {"compound": "[^89Zr] zirconium-p-isothiocyanatobenzyl-desferrioxamine [[^89Zr] Zr-DBN]", "values": [
      {"measurement": "stability of [^89Zr]Zr-DBN", "setting": "[3]; 72 hours post HPLC purification, without ascorbic acid", "value": 66, "unit": "%"},
      {"measurement": "stability of [^89Zr]Zr-DBN", "setting": "[3]; 72 hours, with addition of ascorbic acid (25 μL of 200 mg/mL)", "value": "> 82", "unit": "%"},
      {"measurement": "enhancement of the 27.1 minutes HPLC peak for [^89Zr]Zr-DBN by ascorbic acid", "setting": "[3]; immediately after concentration, ascorbic acid added before the concentration step", "value": "~12", "unit": "%"}
    ]}
  ]
}
